Assay results taken from patent US9670195B2, “Glycosidase inhibitors and uses thereof” (Alectos Therapeutics Inc., priority 2012, dated 2017).

Biological target: human O-GlcNAcase (Homo sapiens (Human), UniProt O60502)
Experiment: Assay for determination of KI values for inhibition of O-GlcNAcase activity (fluorescence-based)
Format: biochemical
Details: purified human O-GlcNAcase, 4-Methylumbelliferyl N-acetyl-β-D-glucosaminide substrate, pH 7.0, Cheng-Prusoff; read-out: Fluorescence-based hOGA Ki
Method: Assay for Determination of KI Values for Inhibition of O-GlcNAcase Activity
Experimental Procedure for Kinetic Analyses:
Enzymatic reactions are carried out in a reaction containing 50 mM NaH2PO4, 100 mM NaCl and 0.1% BSA (pH 7.0) using 2 mM 4-Methylumbelliferyl N-acetyl-β-D-glucosaminide dihydrate (Sigma M2133) dissolved in ddH2O, as a substrate. The amount of purified human O-GlcNAcase enzyme used in the reaction is 0.7 nM. Test compound of varying concentrations is added to the enzyme prior to initiation of the reaction. The reaction is performed at room temperature in a 96-well plate and is initiated with the addition of substrate. The production of fluorescent product is measured every 60 sec for 45 min with a Tecan Infinite M200 plate-reader with excitation at 355 nm and emission detected at […], with 4-Methylumbelliferone (Sigma M1381) used to produce a standard curve. The slope of product production is determined for each concentration of compound tested and plotted, using standard curve fitting algorithms for sigmoidal dose response curves. The values for a four parameter logistic curve fit of the data are determined.
KI values are determined using the Cheng-Prusoff equation; the Km of O-GlcNAcase for substrate is 0.2 mM.

Chain of human O-GlcNAcase (O60502 whole entry): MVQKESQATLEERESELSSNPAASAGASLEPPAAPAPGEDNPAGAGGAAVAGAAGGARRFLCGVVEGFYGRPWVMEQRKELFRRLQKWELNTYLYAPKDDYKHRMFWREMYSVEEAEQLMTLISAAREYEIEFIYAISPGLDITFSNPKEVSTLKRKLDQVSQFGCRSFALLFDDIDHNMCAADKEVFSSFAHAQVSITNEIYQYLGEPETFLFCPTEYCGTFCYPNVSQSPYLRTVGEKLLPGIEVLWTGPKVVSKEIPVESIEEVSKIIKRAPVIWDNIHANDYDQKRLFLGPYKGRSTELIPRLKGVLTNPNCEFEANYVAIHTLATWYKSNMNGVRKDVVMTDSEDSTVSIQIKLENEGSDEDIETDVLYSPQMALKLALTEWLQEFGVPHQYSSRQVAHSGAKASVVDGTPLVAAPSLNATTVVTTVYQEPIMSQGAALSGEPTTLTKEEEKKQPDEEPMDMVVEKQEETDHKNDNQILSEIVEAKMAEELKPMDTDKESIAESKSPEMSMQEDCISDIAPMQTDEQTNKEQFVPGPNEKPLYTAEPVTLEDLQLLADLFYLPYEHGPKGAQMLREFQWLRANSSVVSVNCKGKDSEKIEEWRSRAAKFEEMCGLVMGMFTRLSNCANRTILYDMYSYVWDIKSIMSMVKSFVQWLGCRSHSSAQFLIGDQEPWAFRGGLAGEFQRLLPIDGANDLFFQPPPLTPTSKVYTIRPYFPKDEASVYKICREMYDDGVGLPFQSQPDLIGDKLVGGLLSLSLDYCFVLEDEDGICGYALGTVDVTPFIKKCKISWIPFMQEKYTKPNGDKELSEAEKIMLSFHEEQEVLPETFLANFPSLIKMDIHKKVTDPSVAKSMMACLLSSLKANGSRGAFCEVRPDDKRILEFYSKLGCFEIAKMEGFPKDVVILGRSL

| SMILES | Ki |
| --- | --- |
| CCCCN1C[C@H](NC(C)=O)[C@@H](O)[C@@H]1CO | 15 µM |
| CC(=O)N[C@H]1CN[C@@H](CO)[C@@H]1O | 5.9 µM |
| CC(=O)N[C@H]1CN(CCCc2ccccc2)[C@@H](CO)[C@@H]1O [Example 1, N-((3S,4R,5S)-4-hydroxy-5-(hydroxymethyl)-1-(3-phenylpropyl)pyrrolidin-3-yl)acetamide] | 16.5 µM |
